Reference: patent publication US10391070B2, “Compositions and methods for treating neurological diseases or injury” (MUSC FOUNDATION FOR RESEARCH DEVELOPMENT, priority 2012, dated 2019)
Like-named read-outs stand apart in the source and are kept apart here.

Tests used:
HT22 cells = assay: In vitro neurotoxicity without glutamate (MTS cell viability); type: cell-based, mouse; conditions: for Safety Index TC50/PC50: HT22 cells
Experimental: The HT22 neuronal cell line is a subclone of HT4, derived from the mouse hippocampus (Morimoto and Koshland, 1990). […] HT22 cells were used. The cells were grown in Dulbecco's Modified Eagle's medium (DMEM/high glucose) supplemented with 10% fetal bovine serum (Hyclone) and 5 mL Antibiotic-Antimycotic (Amphotericin B, Penicillin, and Streptomycin; Invitrogen) at 37° C. in 5% CO2.
Cell viability was assessed by the ability of the viable cells to metabolize 3-(4,5-dimethylthiazol-2-yl)-5-(3-carboxymethoxyphenyl)-2(4-sulfophenyl)2-H-tetrazolium, inner salt (MTS), as described previously (Cory et al., 1991). The metabolism of tetrazolium salts is often used to measure cellular proliferation, but in the system used here, it has been previously shown to correlate well with cell viability as determined by trypan blue exclusion and colony-forming assays (Davis and Maher, 1994). Briefly, HT-22 cells were seeded onto 96-well plates at 5.0×10^3 cells per well in 75 μL of medium and maintained at 37° C. in 5% CO2 overnight prior to the initiation of experimental treatments. For glutamate toxicity testing, cells were subsequently treated with 25 μL of medium containing glutamate (monosodium glutamate, Sigma, 1 M stock concentration in media, to achieve a final concentration of 10 mM) plus inhibitors (stock in DMSO) and maintained at 37° C. in 5% CO2. For t-BuOOH toxicity testing, cells were subsequently treated with 25 μL of medium containing t-BuOOH (Sigma, 10 mM stock concentration, to achieve a final concentration of 50 μM) plus inhibitors (stock in DMSO) and maintained at 37° C. in 5% CO2 for 3 hours, after which the media was removed, cells washed gently with HBSS, the media replaced with standard culture media, and the cells returned to incubation at 37° C. in 5% CO2. For both glutamate and t-BuOOH treatments, 10 μl of MTS solution was added to each well 24 hrs after initial treatment, and the cells were maintained in growth medium for 2 h at 37° C. Absorbance at 490 nm was subsequently measured by a SpectraMax 190 plate reader (Molecular Devices). The growth medium without cells in the presence of MTS solution was used as solution background and untreated cells were considered the controls. Cell viability was calculated as a percentage compared with untreated controls. EC50 determinations were based on 12-point titrations using GraphPad Prism, and each experiment was repeated at least four times. Morphology of HT22 cells following treatments was determined by phase-contrast microscopy. Digital images of cells grown on cell culture plates were captured at 10× magnification.

NQO-1 = assay: qRT-PCR of antioxidant response gene NQO-1; type: cell-based, mouse; conditions: HT22, 10 mM glutamate 16 hrs, relative to glutamate only
Experimental: HT22 cells were seeded onto cell culture treated 6-well plates at 3.0×10^5 cells per well in 2 mL of medium and maintained at 37° C. in 5% CO2 overnight prior to the initiation of experimental treatments. Cells were subsequently treated with 1 mL of medium containing glutamate (monosodium glutamate, Sigma-Aldritch, 1 M stock concentration in media, to achieve a final concentration of 10 mM) plus inhibitors (stock in DMSO) and maintained at 37° C. in 5% CO2. After 16 hrs, the media was collected and the cells harvested by trypsanization. After centrifugation, pelleted cells were washed with cold Hanks' Balanced Salt Solution (HBSS Ca^2+/Mg^2+ Free; Invitrogen; KCl 5.33 mM, KH2PO4 0.441 mM, NaHCO3 4.17 mM, NaCl 137.93 mM, Na2HPO4 0.338 mM, D-Glucose 5.56 mM), qRT-PCR was used to detect HO-1, NQO-1, and PGAM5 mRNAs in the HT22 cells. […] Therefore β2-microglobulin was used as a reference gene (Barrionuevo and Burggren, 1999). HT22 cells were cultured as described for 16 hrs. Total RNAs were extracted using the RNEasy kit (Qiagen), and transcripts of interest were amplified by PCR using the 1-step Syber Green qRT-PCR kit (Quanta) and the following specific primers (Harvard PrimerBank; Integrated DNA Technologies): HO-1, 5′-[…]-3′ (SEQ ID NO:1) and 5′-[…]-3′ (SEQ ID NO:2); PGAM5, 5′-[…]-3′ (SEQ ID NO:3) and 5′-[…]-3′ (SEQ ID NO:4); NQO-1, 5′-[…]-3′ (SEQ ID NO:5) and 5′-[…]-3′ (SEQ ID NO:6); and β2-microglobulin, 5′-[…]-3′ (SEQ ID NO:7) and 5′-[…]-3′ (SEQ ID NO:8). Linearity of the primers was verified before use, and fold changes were calculated as previously described using the Livak method (Barrionuevo and Burggren, 1999).

[1] = HT22 cells without glutamate, 24 hrs, MTS, concentration producing 50% toxicity, read-out: Toxicity TC50

## C#CCNC1=CC(=O)c2ccccc2C1=O [Compound 2h, 2-(prop-2-yn-1-ylamino)naphthalene-1,4-dione]
HT22 cells
  Safety Index TC50/PC50: 442
HT22 cells; [1]
  CC50: 53 µM

## O=C1C=C(NCc2ccccc2)C(=O)c2ccccc21 [Compound 2j, 2-(benzylamino)naphthalene-1,4-dione]
HT22 cells
  Safety Index TC50/PC50: 1,136
HT22 cells; [1]
  CC50: > 100 µM
NQO-1
  NQO-1 gene expression: did not affect NQO-1 expression

## O=C1C=C(NCc2cccc(Cl)c2)C(=O)c2ccccc21 [Compound 2q, 2-((3-chlorobenzyl)amino)naphthalene-1,4-dione]
HT22 cells
  Safety Index TC50/PC50: 3,226
HT22 cells; [1]
  CC50: > 100 µM
NQO-1
  NQO-1 gene expression: did not affect NQO-1 expression

## CC1=CC(=O)c2ccccc2C1=O [VK3, menadione, reference compound]
HT22 cells
  Safety Index TC50/PC50: 24
HT22 cells; [1]
  CC50: 19 µM

## menaquinones [VK2, reference compound]
HT22 cells
  CC50: > 100 µM
  cellular toxicity: neither exhibited any signs of cellular toxicity
  Safety Index TC50/PC50: 231
NQO-1
  NQO-1 gene expression: did not affect NQO-1 expression
